Measured values reported in patent US20030188679A1, “Powdered mannitol and mannitol-containing compositions” (priority 2000, published 2003).

Assay: Particle size result of micronised salbutamol sulphate
Assay type: physicochemical

Salbutamol Sulphate
Particle size result: MMD (Mass Mean Diameter): =2.53 μm. | Particle size result: fraction of particles >1 μm: 90.17% | Particle size result: size below which 90% of particles lie: <5.48 μm
